Assay [1] deals with T1, vanilloid receptor 1 (VR1/TRPV1 receptor) (Mus musculus, UniProt Q704Y3).
T1 construct: expressed in transfected cells; host or cells: CHO K1 cells (inferred: method II; method I is described for rat DRG neurons only)
The assay is described as follows: FLIPR Ca2+ influx assay on vanilloid receptor 1, capsaicin stimulus (mouse). The format is cell-based. As to conditions: Cap = capsaicin, Ki from IC50 by Cheng-Prusoff. An excerpt: The agonistic or antagonistic effect of the substances to be tested on the vanilloid receptor 1 (VR1) can also be determined using the following assay. In this assay, the influx of Ca^2+ through the channel is quantified with the aid of a Ca^2+-sensitive dye (type Fluo-4, Molecular Probes Europe BV, Leiden, the Netherlands) in a fluorescent imaging plate reader (FLIPR, Molecular Devices, Sunnyvale, USA).
Chinese hamster ovary cells (CHO K1 cells, European Collection of Cell Cultures (ECACC) United Kingdom) are stably transfected with the VR1 gene. […] The Ca^2+-dependent fluorescence is measured before and after the addition of the substances to be tested (λex wavelength=488 nm, λem=540 nm). Quantification is carried out by measuring the highest fluorescence intensity (FC, fluorescence counts) over time.
The FLIPR protocol consists of 2 substance additions. […] After 5 minutes' incubation, 100 nM of capsaicin are applied and the Ca^2+ influx is also determined. […]
Starting from the percentage displacement caused by different concentrations of the compounds to be tested of general formula I, IC50 inhibitory concentrations which cause a 50-percent displacement of capsaicin were calculated. […]
The affinity of the compounds according to the invention for the vanilloid receptor 1 (VR1/TRPV1 receptor) was determined as described hereinbefore (pharmacological methods I and II respectively). […]

For assay [2], the target named is T2, vanilloid receptor 1 (VR1/TRPV1 receptor) (Homo sapiens, UniProt Q8NER1).
T2 construct: expressed in transfected cells; host or cells: CHO K1 cells (ECACC), stably transfected
The assay is described as follows: FLIPR Ca2+ influx assay with CHO K1 cells transfected with the human VR1 gene, capsaicin stimulus. In kind it is cell-based. The settings on record: Cap = capsaicin (100 nM), Ki from IC50 by Cheng-Prusoff, read-out: Ki (human being) [nM] Cap. On the procedure:
Furthermore, preference may be given to compounds according to the invention of general formula (I) that cause a 50 percent displacement of capsaicin, which is present at a concentration of 100 nM, in a FLIPR assay with CHO K1 cells which were transfected with the human VR1 gene at a concentration of less than 2,000 nM, preferably less than 1,000 nM, particularly preferably less than 300 nM, most particularly preferably less than 100 nM, even more preferably less than 75 nM, additionally preferably less than 50 nM, most preferably less than 10 nM. In the process, the Ca^2+ influx is quantified in the FLIPR assay with the aid of a Ca^2+-sensitive dye (type Fluo-4, Molecular Probes Europe BV, Leiden, the Netherlands) in a fluorescent imaging plate reader (FLIPR, Molecular Devices, Sunnyvale, USA), as described hereinafter. The agonistic or antagonistic effect of the substances to be tested on the vanilloid receptor 1 (VR1) can also be determined using the following assay. In this assay, the influx of Ca^2+ through the channel is quantified with the aid of a Ca^2+-sensitive dye (type Fluo-4, Molecular Probes Europe BV, Leiden, the Netherlands) in a fluorescent imaging plate reader (FLIPR, Molecular Devices, Sunnyvale, USA). Chinese hamster ovary cells (CHO K1 cells, European Collection of Cell Cultures (ECACC) United Kingdom) are stably transfected with the VR1 gene. For functional testing, these cells are plated out on poly-D-lysine-coated black 96-well plates having a clear base (BD Biosciences, Heidelberg, Germany) at a density of 25,000 cells/well. The cells are incubated overnight at 37° C. and 5% CO2 in a culture medium (Ham's F12 nutrient mixture, 10% by volume of FCS (foetal calf serum), 18 μg/ml of L-proline). The next day the cells are incubated with Fluo-4 (Fluo-4 2 μM, 0.01% by volume of Pluronic F127, Molecular Probes in HBSS (Hank's buffered saline solution), Gibco Invitrogen GmbH, Karlsruhe, Germany) for 30 minutes at 37° C. Subsequently, the plates are washed three times with HBSS buffer and after further incubation for 15 minutes at RT used for Ca^2+ measurement in a FLIPR assay. The Ca^2+-dependent fluorescence is measured before and after the addition of the substances to be tested (λex wavelength=488 nm, λem=540 nm). Quantification is carried out by measuring the highest fluorescence intensity (FC, fluorescence counts) over time. The FLIPR protocol consists of 2 substance additions. First the compounds to be tested (10 μM) are pipetted onto the cells and the Ca^2+ influx is compared with the control (capsaicin 10 μM) (% activation based on the Ca^2+ signal after the addition of 10 μM of capsaicin). After 5 minutes' incubation, 100 nM of capsaicin are applied and the Ca^2+ influx is also determined. Desensitising agonists and antagonists led to suppression of the Ca^2+ influx. The % inhibition is calculated compared to the maximum achievable inhibition with 10 μM of capsaicin. Starting from the percentage displacement caused by different concentrations of the compounds to be tested of general formula I, IC50 inhibitory concentrations which cause a 50-percent displacement of capsaicin were calculated. K, values for the test substances were obtained by conversion by means of the Cheng-Prusoff equation (Cheng, Prusoff; Biochem. Pharmacol. 22, 3099-3108, 1973). The affinity of the compounds according to the invention for the vanilloid receptor 1 (VR1/TRPV1 receptor) was determined as described hereinbefore (pharmacological methods I and II respectively). The compounds according to the invention of the above-indicated formula (I) display outstanding affinity to the VR1/TRPV1 receptor (Table 1.).

Usually Ki stands for the equilibrium dissociation constant of an inhibitor or competing ligand from its target.

T2 sequence (Q8NER1 whole entry): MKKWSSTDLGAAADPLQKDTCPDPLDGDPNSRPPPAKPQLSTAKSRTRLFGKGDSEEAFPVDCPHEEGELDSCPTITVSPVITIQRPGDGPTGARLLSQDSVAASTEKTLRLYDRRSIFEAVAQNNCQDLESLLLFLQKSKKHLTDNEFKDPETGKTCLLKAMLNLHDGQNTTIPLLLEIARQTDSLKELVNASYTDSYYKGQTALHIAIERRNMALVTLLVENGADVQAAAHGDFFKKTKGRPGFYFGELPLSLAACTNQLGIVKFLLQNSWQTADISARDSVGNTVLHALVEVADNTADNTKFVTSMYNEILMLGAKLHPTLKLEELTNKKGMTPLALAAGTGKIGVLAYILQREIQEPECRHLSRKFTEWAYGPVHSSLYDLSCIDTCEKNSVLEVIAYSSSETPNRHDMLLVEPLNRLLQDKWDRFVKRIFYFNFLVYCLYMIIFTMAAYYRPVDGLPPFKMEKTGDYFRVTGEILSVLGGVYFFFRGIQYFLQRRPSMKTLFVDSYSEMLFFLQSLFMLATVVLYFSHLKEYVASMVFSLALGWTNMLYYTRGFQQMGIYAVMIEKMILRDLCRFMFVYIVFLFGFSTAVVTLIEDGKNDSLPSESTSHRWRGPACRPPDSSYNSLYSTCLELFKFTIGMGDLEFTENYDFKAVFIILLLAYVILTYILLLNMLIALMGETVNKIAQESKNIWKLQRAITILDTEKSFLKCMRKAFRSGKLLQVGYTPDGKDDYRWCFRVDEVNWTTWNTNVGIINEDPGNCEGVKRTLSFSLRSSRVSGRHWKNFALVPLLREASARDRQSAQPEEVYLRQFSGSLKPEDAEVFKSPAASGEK
T1 sequence (Q704Y3 whole entry): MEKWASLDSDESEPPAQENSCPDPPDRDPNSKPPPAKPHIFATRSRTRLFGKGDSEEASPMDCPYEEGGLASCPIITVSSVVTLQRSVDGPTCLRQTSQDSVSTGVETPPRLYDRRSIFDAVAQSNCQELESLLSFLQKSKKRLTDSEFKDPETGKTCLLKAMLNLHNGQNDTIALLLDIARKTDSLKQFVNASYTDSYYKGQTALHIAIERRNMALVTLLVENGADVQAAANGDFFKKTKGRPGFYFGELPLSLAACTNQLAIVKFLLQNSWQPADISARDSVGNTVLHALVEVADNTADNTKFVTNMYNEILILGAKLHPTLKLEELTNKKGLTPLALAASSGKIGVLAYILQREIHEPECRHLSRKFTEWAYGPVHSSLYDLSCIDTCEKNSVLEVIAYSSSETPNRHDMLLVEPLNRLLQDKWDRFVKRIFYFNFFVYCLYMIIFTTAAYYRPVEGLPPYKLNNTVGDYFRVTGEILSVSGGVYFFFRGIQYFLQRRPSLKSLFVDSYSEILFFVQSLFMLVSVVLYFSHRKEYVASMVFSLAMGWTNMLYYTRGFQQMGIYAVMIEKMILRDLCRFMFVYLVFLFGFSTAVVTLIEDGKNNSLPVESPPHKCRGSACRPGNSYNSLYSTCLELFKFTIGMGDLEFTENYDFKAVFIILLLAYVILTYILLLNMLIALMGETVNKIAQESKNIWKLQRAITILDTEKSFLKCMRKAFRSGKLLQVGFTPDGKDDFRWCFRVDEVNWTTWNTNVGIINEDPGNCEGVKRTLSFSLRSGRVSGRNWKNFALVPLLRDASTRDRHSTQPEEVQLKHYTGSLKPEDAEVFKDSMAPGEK

`Cc1cccc(-n2nc(C(F)(F)F)cc2CNC(=O)C(C)c2cn(C)c3ccc(O)cc23)c1` (stereo not shown) [Example 5, 2-(5-hydroxy-1-methyl-1H-indol-3-yl)-N-((1-m-tolyl-3-(trifluoromethyl)-1H-pyrazol-5-yl)methyl)propanamide]: the Ki in assay [1] was 38.5 nM; in assay [2], 0.6 nM.
As for `CC(C(=O)NCc1cc(C(F)(F)F)nn1-c1cccc(Cl)c1)c1cn(C)c2ccc(O)cc12` (stereo not shown) [Example 10, N-((1-(3-chlorophenyl)-3-(trifluoromethyl)-1H-pyrazol-5-yl)methyl)-2-(5-hydroxy-1-methyl-1H-indol-3-yl)propanamide], the Ki in assay [1] was 4.8 nM; in assay [2] it was 0.4 nM.

Source of the values: patent US20120115903A1, “Substituted Heteroaromatic Carboxamide and Urea Compounds as Vanilloid Receptor Ligands” (Gruenenthal GmbH, priority 2010, published 2012).
